The text below walks through data of publication PMC4648050, “Discovery of Inhibitors of Trypanosoma brucei by Phenotypic Screening of a Focused Protein Kinase Library” (Chemmedchem, 2015).

A short description of data set [1]: Intrinsic clearance in mouse liver microsomes. Particulars: mouse hepatic microsomes, 0.5 μM compound. The format is in vitro ADME. The method, then:
Intrinsic clearance experiments: Test compound (0.5 μM) was incubated with female CD1 mouse liver microsomes (Xenotech LLC; 0.5 mg mL^−1 50 mM potassium phosphate buffer, pH 7.4), and the reaction started with the addition of excess NADPH (8 mg mL^−1 50 mM potassium phosphate buffer, pH 7.4). Immediately, at t0, then at 3, 6, 9, 15, and 30 min an aliquot (50 μL) of the incubation mixture was removed and mixed with MeCN (100 μL) to stop the reaction. Internal standard was added to all samples, the samples were centrifuged to sediment precipitated protein, and the plates were then sealed prior to UPLC–MS/MS analysis using a Quattro Premier XE instrument (Waters Corp., USA). XLfit (IDBS, UK) was used to calculate the exponential decay and consequently the rate constant (k) from the ratio of peak area of test compound to internal standard at each time point. The rate of intrinsic clearance [CLint, mL min^−1 (g liver)^−1] of each test compound was then calculated with Equation (3): […]
in which V [mL (mg protein)^−1] is the incubation volume per mg protein added, and microsomal protein yield is taken as 52.5 mg protein per gram of liver. Verapamil (0.5 μM) was used as a positive control to confirm acceptable assay performance.
A general note: Microsomes from liver hold many membrane-bound enzymes, among them those of drug oxidation.

A short description of data set [2]: Plasma protein binding (equilibrium dialysis). It is filed as in vitro ADME. Conditions: mouse plasma, equilibrium dialysis; for fraction unbound at 5 h, 10 μg g^−1: female, CD1, read-out: PPB. The method, then:
Plasma protein binding experiments: In brief, a 96-well equilibrium dialysis apparatus was used to determine the free fraction in plasma for each compound (HT Dialysis LLC, Gales Ferry, CT, USA). Membranes (12-14 kDa cutoff) were conditioned in deionised H2O for 60 min, followed by conditioning in 80:20 deionised H2O/EtOH for 20 min, and then rinsed in isotonic buffer before use. Female CD1 mouse plasma was removed from the freezer and allowed to thaw on the day of experiment. Thawed plasma was then centrifuged (Allegra […], Beckman Coulter, USA), spiked with test compound (10 μg g^-1), and 150 μL aliquots (n=6 replicate determinations) loaded into the 96-well equilibrium dialysis plate. Dialysis against isotonic buffer (150 μL) was carried out for 5 h in a temperature-controlled incubator at ∼37 °C (Barworld Scientific Ltd., UK) using an orbital microplate shaker at 125 rpm (Barworld Scientific). At the end of the incubation period, aliquots of plasma or buffer were transferred to micronic tubes (Micronic B.V., the Netherlands), and the composition in each tube was balanced with control fluid such that the volume of buffer to plasma is the same. Sample extraction was performed by the addition of 400 μL MeCN containing an appropriate internal standard. Samples were allowed to mix for 1 min and then centrifuged at 3000 rpm in 96-well blocks for 15 min (Allegra […], Beckman Coulter, USA). All samples were analysed by UPLC-MS/MS on a Quattro Premier XE Mass Spectrometer (Waters Corp.). The unbound fraction was determined as the ratio of the peak area in buffer to that in plasma.
(In equilibrium dialysis only unbound substance equilibrates across the membrane.)

A short description of data set [3]: Kinetic aqueous solubility (laser nephelometry). It is filed as physicochemical. Particulars: Milli-Q water with 2.5% DMSO, kinetic from dmso stock, range 250–12 μM, read-out: Aq. Sol. (aqueous kinetic solubility). The protocol:
Solubility experiments: The kinetic aqueous solubility of the test compounds was measured using laser nephelometry. Compounds were subject to serial dilution from 10 mM to 0.5 mM in DMSO. An aliquot was then mixed with Milli-Q H2O to obtain an aqueous dilution plate with a final concentration range of 250–12 μM, with a final DMSO concentration of 2.5 %. Triplicate aliquots were transferred to a flat-bottomed polystyrene plate which was immediately read on the NEPHELOstar (BMG Lab Technologies). The amount of laser scatter caused by insoluble particulates (relative nephelometry units, RNU) was plotted against compound concentration using a segmental regression fit, with the point of inflection being quoted as the compounds′ aqueous solubility (in μM).

Data set [4] relates to MRC5 cells (human lung fibroblasts). The experiment in a line: MRC5 proliferation assay. Conditions: geometric mean of two or more determinations. It is filed as cell-based. The protocol: (§1) Trypanosome and MRC5 proliferation assay: Measurement of inhibition of the proliferation of MRC5 cells (human lung fibroblasts) and T. brucei bloodstream-stage cells was performed using a modification of a cell viability assay previously described.[35, 36] Compounds ([…] to 0.5 nM) were incubated with 2×10^3 cells per well in 0.2 mL of the appropriate culture medium (MEM with 10 % foetal bovine serum for MRC5 cells) in clear 96-well plates. Plates were incubated at 37 °C in the presence of 5 % CO2 for 69 h. Resazurin was then added to a final concentration of 50 μM, and plates were incubated as above for a further 4 h before being read on a BioTek Flx800 fluorescence plate reader.

Data set [5] concerns T. b. brucei. The experiment in a line: Trypanosome proliferation assay. It is filed as cell-based, Trypanosoma brucei brucei. Conditions: for EC50: geometric mean of two or more determinations, standard cell viability (resazurin) assay, read-out: EC50 T. b. brucei. The method, then:
as §1
A general note: The colour change of resazurin is a common sign of viable cells or microbes.

In data set [6] the test system is T. brucei bloodstream-stage cells. The experiment in a line: Static–cidal (SC) assay. The format is cell-based, Trypanosoma brucei brucei. Particulars: for EC50 / MCC: Trypanosoma brucei; for EC50: 48 h; for MCC: static–cidal assay in triplicate, read-out: MCC (minimal cidal concentration); for Mode: static/cidal classification from growth curves; for mode of antiparasitic effect (in words): text and figure legend, at concentrations tested; for plateau of dose–response curve (inhibition): static–cidal dose–response curve. The method, then:
Determination of cidality against T. brucei bloodstream-stage cells was performed using a static–cidal (SC) assay as previously reported.[26] Briefly, bloodstream-form trypanosomes were seeded into 384-well plates at 4×10^5 mL^−1 (50 μL per well), followed by immediate addition of resazurin (50 μM final) to one of the plates, and all plates were incubated at 37 °C, 5 % CO2. After 4 h the t0 plate was read using a PerkinElmer Victor 3 plate reader (λex=528 nm, λem=590 nm). The second plate was processed in the same manner 20 h later, and at 44 h the last plate was processed. The minimum cidal concentration (MCC) is defined as the lowest concentration of drug that results in a decrease of resorufin signal over time. For dose–response curves from this assay either a monophasic or a biphasic equation was used, depending on which one provided the best fit. For monophasic fits, the following four-parametric equation [Eq. (1)] was used:
in which A=percent inhibition at bottom, B=percent inhibition at top, C=EC50, D=slope, x=inhibitor concentration, and y=percent inhibition. Equation (2) was used for biphasic fits:
for which A=percent inhibition at mid-plateau, B=slope, C=log[SC EC50(1)], D=log[SC EC50(2)]. Thus SC EC50(1) is the EC50 for the first phase of the curve, and SC EC50(2) is that for the second phase. Inhibition at the bottom of the curve is fixed at 0 % and at the top, 100 %.

Where [7] appears, read: static cidal EC50, first site/phase, read-out: SC EC50(1).
[8] abbreviates: static cidal EC50, second site/phase, read-out: SC EC50(2).

≈ marks a conversion by molar mass, not a printed value. Entries after “also recorded” stand apart in the source; their conditions may differ. Read-outs that look alike come from different tables or passages of the source.

Regarding `O=c1[nH]c2ncc(-c3ccccc3)nc2n1C1CCCCC1` [Compound 19], in data set [1], the CLint was determined as 3.6 mL/min/g. Moreover, in data set [2], the fraction unbound at 5 h, 10 μg g^−1 is 0.008. In data set [2], the PPB was 0.8 % free. The kinetic solubility (in general, solubility judged after dilution from a stock solution rather than from solid) in data set [3] was found to be 110 µM (≈ 32.4 µg/mL). Moreover, the EC50 – broadly, the concentration giving half of the maximal effect – in data set [4] was over 50000 nM; in data set [5] (Trypanosoma brucei), 40 nM; in data set [5], 44 nM.

Turning to `O=c1[nH]c2ncc(-c3cccc(CO)c3)nc2n1C1CCCCC1` [Compound 24], the solubility (kinetic) in data set [3] was over 250 µM. For the same compound, the EC50 in data set [6] (setting [7]) was 70 nM; in data set [6] (setting [8]), 30000 nM; in data set [4], over 50000 nM; in data set [5] (Trypanosoma brucei), 30 nM. Further, the MCC in data set [6] was over 50 µM. Further, the Mode entry in data set [6] is reported as “S”. In addition, in data set [6], the “mode of antiparasitic effect (in words)” value was “growth-slowing or static behaviour; also recorded: static at concentration tested”.

Take `O=c1[nH]c2ncc(-c3ccccc3F)nc2n1C1CCCCC1` [Compound 26]: the fraction unbound at 5 h, 10 μg g^−1 in data set [2] turned out to be 0.007. Besides, in data set [3], the solubility (kinetic) is 20 µM (≈ 6.25 µg/mL). Besides, the values for the EC50 in data set [6] (setting [7]), in data set [4] and in data set [5] (Trypanosoma brucei) were 90 nM, over 50000 nM and 60 nM, respectively. Moreover, in data set [6], the MCC was over 50 µM. For the same compound, the “mode of antiparasitic effect (in words)” value in data set [6] is recorded as “growth-slowing or static behaviour”.

Compound `O=c1[nH]c2ncc(-c3cccnc3)nc2n1C1CCCCC1` [Compound 30] displayed a CLint in data set [1] of 2.8 mL/min/g. Moreover, the fraction unbound at 5 h, 10 μg g^−1 in data set [2] came to 0.023. In addition, the EC50 is 230 nM in data set [6] (setting [7]), over 50000 nM in data set [4], 100 nM in data set [5] (Trypanosoma brucei) and 120 nM in data set [5]. Moreover, in data set [6], the MCC was over 50 µM. The “mode of antiparasitic effect (in words)” value in data set [6] is given as “growth-slowing or static behaviour”.

For `O=c1[nH]c2ncc(N3CCCCC3)nc2n1C1CCCCC1` [Compound 31, 1-Cyclohexyl-6-(piperidin-1-yl)-1H-imidazo[4,5-b]pyrazin-2(3H)-one], the CLint in data set [1] was determined as 15 mL/min/g. In data set [2], this compound showed a PPB of 0 % free. Also, the EC50 is over 50000 nM in data set [4], 80 nM in data set [5] (Trypanosoma brucei) and 77 nM in data set [5].

For `O=c1[nH]c2ncc(N3CCOCC3)nc2n1C1CCCCC1` [Compound 32], the kinetic solubility in data set [3] turned out to be 220 µM (≈ 66.7 µg/mL). For the same compound, the EC50 was over 50000 nM in data set [4] and 50 nM in data set [5] (Trypanosoma brucei).

In turn, `O=c1[nH]c2ncc(-c3ccccc3)cc2n1C1CCCCC1` [Compound 51] gave a CLint in data set [1] of 5.8 mL/min/g. For the same compound, in data set [2], the fraction unbound at 5 h, 10 μg g^−1 was found to be 0.029. Moreover, the solubility (kinetic) in data set [3] came to 36 µM (≈ 10.6 µg/mL). Further, the EC50 in data set [6] (setting [7]) was 20 nM; in data set [6] (setting [8]) it was 41000 nM; in data set [4], over 50000 nM; in data set [5] (Trypanosoma brucei), 54 nM; in data set [5], 50 nM. Also, in data set [6], the MCC is over 50 µM. Also, the Mode result in data set [6] is “S^[d]”. Moreover, in data set [6], the “mode of antiparasitic effect (in words)” value is on record as “growth-slowing or static behaviour”.

In the case of `O=c1[nH]c2ncc(-c3cccnc3)cc2n1C1CCCCC1` [Compound 55], the CLint in data set [1] came out at 2.7 mL/min/g. Also, in data set [2], the fraction unbound at 5 h, 10 μg g^−1 is 0.11. Also, in data set [3], the solubility (kinetic) came out at 180 µM (≈ 53 µg/mL). For the same compound, the EC50 in data set [6] (setting [7]) was 330 nM; in data set [4], over 50000 nM; in data set [5] (Trypanosoma brucei) it was 230 nM. The MCC in data set [6] was over 50 µM. Besides, the “mode of antiparasitic effect (in words)” value in data set [6] is given as “growth-slowing or static behaviour”. Besides, in data set [5] (relative to the comparator compound), the “fold loss of activity (T. b. brucei EC50)” value was “approximately 2 fold”.

`c1ccc(-c2cnc3[nH]nc(C4CCCCC4)c3c2)cc1` [Compound 60] registered a CLint in data set [1] of 15 mL/min/g. Besides, the fraction unbound at 5 h, 10 μg g^−1 in data set [2] was 0.014. Besides, the solubility (kinetic) in data set [3] was 20 µM (≈ 5.55 µg/mL). The EC50 is 80 nM in data set [6] (setting [7]); 7900 nM in data set [6] (setting [8]); over 50000 nM in data set [4]; 59 nM in data set [5] (Trypanosoma brucei); 60 nM in data set [5]. For the same compound, the MCC in data set [6] was found to be 17 µM. The “plateau of dose–response curve (inhibition)” value in data set [6] worked out at 100 % inhibition. Besides, in data set [6], the “mode of antiparasitic effect (in words)” value is given as “cidal behaviour”.

In the case of `c1cncc(-c2cnc3[nH]nc(C4CCCCC4)c3c2)c1` [Compound 63], the CLint in data set [1] is 6.6 mL/min/g. Further, in data set [2], the fraction unbound at 5 h, 10 μg g^−1 stood at 0.052. For the same compound, the kinetic solubility in data set [3] amounted to 250 µM (≈ 69.6 µg/mL). Also, the EC50 was 280 nM in data set [6] (setting [7]), 6100 nM in data set [6] (setting [8]), over 50000 nM in data set [4] and 260 nM in data set [5] (Trypanosoma brucei). The MCC in data set [6] turned out to be 17 µM. Further, the “plateau of dose–response curve (inhibition)” value in data set [6] was determined as 100 % inhibition. For the same compound, the “mode of antiparasitic effect (in words)” value in data set [6] is “cidal behaviour”.
